The target of one series is HDAC1 (Homo sapiens, UniProt Q13547). The experiment in a line: HDAC inhibition, HDAC1. Format: biochemical.
In the next series the target is HDAC2 (Homo sapiens, UniProt Q92769). The experiment in a line: HDAC inhibition, HDAC2. The format is biochemical.
Another series concerns the target T1, HDAC6 (Homo sapiens, UniProt Q9UBN7).
T1 sequence (Q9UBN7 1-1215): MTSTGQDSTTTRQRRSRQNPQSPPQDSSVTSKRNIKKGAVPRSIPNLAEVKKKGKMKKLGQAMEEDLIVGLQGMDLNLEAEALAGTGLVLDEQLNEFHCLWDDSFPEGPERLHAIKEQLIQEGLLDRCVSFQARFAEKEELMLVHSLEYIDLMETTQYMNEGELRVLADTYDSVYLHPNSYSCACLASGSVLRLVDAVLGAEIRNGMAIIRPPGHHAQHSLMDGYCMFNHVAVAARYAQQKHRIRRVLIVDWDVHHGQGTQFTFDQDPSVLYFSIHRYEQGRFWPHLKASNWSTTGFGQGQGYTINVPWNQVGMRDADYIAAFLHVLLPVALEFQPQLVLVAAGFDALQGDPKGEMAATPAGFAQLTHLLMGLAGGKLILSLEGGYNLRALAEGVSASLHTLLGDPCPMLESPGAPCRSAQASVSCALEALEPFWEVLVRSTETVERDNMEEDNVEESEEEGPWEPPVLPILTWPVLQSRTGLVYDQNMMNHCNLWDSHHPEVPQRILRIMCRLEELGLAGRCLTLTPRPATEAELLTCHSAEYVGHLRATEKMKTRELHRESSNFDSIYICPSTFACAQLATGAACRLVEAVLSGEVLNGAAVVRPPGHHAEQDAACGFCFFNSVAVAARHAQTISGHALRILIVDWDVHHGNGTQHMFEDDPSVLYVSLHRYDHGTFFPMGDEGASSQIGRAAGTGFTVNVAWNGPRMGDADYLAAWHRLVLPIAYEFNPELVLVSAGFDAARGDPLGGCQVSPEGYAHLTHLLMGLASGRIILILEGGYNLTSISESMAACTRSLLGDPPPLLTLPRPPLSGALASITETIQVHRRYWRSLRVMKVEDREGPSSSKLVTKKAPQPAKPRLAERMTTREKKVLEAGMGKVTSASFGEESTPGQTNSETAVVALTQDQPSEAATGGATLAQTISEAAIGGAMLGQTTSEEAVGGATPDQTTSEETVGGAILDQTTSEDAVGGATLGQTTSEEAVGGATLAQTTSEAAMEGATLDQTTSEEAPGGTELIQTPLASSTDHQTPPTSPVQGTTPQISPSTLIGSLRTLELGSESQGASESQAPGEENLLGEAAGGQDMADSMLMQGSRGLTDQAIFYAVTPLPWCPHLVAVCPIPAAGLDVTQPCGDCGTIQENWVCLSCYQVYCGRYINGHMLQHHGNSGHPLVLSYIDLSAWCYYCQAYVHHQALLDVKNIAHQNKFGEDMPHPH
The experiment in a line: HDAC inhibition, HDAC6. The format is biochemical.

Another series has as its target T2, HDAC8 (Homo sapiens, UniProt Q9BY41).
T2 sequence (Q9BY41 1-377): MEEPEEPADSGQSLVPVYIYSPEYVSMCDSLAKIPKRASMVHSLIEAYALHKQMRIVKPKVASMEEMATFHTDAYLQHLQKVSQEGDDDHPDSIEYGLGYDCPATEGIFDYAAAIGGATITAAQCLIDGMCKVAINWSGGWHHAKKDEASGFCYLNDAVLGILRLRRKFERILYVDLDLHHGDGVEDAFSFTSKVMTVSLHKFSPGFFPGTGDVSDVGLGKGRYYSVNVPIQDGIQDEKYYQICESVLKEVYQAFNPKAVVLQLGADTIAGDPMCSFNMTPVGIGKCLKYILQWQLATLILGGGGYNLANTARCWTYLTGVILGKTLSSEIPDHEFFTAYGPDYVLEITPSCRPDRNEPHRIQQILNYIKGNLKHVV
The experiment in a line: HDAC inhibition, HDAC8. The format is biochemical.

Series [1] has as its system acetylated tubulin and histone H4. The series can be described thus: Western blot of on-target effect (HDAC inhibition) in Hep-G2 cells. Format: cell-based. As to conditions: Hep-G2, 1.25 and 2.5 μM, 5 h, Western blot (FIG. 1). On the procedure:
SAHA was used as positive control while GAPDH was used to control for protein loading. (1a) Hep-G2 treated with DMSO or 0.1% DMSO solution of SAHA (1.25 μM), STR-V-114 (1.25 μM, 2.5 μM) and STR-V-53 (1.25 μM, 2.5 μM). (1b) Hep-G2 treated with DMSO or 0.1% DMSO solution of SAHA (0.5 μM, 1.25 μM) and STR-I-195 (1.25 μM, 2.5 μM). Cell were treated for 5 h before lysis. Quantifications of gel bands are shown below each gel.
In general terms: In western blotting, separated proteins are transferred to a membrane and probed.

For a further series, the system named is Hep-G2 cell line. The experiment in a line: Apoptosis via caspase 3 activation (Western blot) in Hep-G2. The conditions noted are these: Hep-G2, 18 h; STR compounds 10 and 20 μM, SAHA 5 μM (FIG. 2). Format: cell-based. On the procedure:
Actin was used to control for protein loading. Cells were treated with DMSO or 0.1% DMSO solution of SAHA (5 μM), STR-V-53 (10 and 20 μM), or STR-I-195 (10 and 20 μM) for 18 h. (a) Cropped gel image showing upregulation on cleaved caspase 3 (clv-caspase 3) relative to the DMSO control. (b) Quantification of relative levels of clv-caspase 3. (Bars show mean plus standard deviation; *P<0.0332; **P<0.0021; ***P<0.0002; ****P<[…]).

For a further series, the system named is Vero cell line. The series can be described thus: Apoptosis via caspase 3 activation (Western blot) in Vero. The conditions noted are these: Vero (non-transformed model), 18 h; STR compounds 10 and 20 μM, SAHA 5 μM (FIG. 3). Format: cell-based. On the procedure: Actin was used to control for protein loading. Cells were treated with DMSO or 0.1% DMSO solution of SAHA (5 μM), STR-V-53 (10 and 20 μM), or STR-I-195 (10 and 20 μM) for 18 h. Quantification of gel bands are shown below the gel.

The subject of series [2] is Hep-G2. The series can be described thus: Cell cycle analysis in Hep-G2. As to conditions: Hep-G2, 15 μM, 48 h (FIG. 4). The format is cell-based. How it is done: Hep-G2 was cultured in all) cm petri dish until 80% confluence. The cell was serum starved overnight before drug treatment. Subsequently, cells were treated with 10 mL of 0.1% DMSO medium, 0.1% DMSO solution of SAHA (5 μM) or STR-V-53 (15 μM), respectively for 48 h. (a) The control group of Hep-G2 (1); SAHA (5 μM) treated group (2); and STR-V-53 (15 μM) treated group (3). […] (b) Cell distribution in each stage. (c) Analysis of the percentage cell population in cell cycle stages.

Series [3] concerns Hep-G2. The experiment in a line: Cytotoxicity with GLUT2 blockage by Phloretin in Hep-G2. The conditions noted are these: Hep-G2 treated with Phloretin 24 h prior to incubation (FIG. 5). Format: cell-based. How it is done: Hep-G2 and VERO were treated with Phloretin (Ph) for 24 h prior to incubation with STR-V-53 or SAHA. (a) Hep-G2 treated by STR-V-53 with or without Ph. (b) Hep-G2 treated by SAHA with or without Ph. (c) VERO treated by STR-V-53 with or without Ph. (d) VERO treated with SAHA with or without Ph.

Chain of HDAC1 (Q13547 whole entry): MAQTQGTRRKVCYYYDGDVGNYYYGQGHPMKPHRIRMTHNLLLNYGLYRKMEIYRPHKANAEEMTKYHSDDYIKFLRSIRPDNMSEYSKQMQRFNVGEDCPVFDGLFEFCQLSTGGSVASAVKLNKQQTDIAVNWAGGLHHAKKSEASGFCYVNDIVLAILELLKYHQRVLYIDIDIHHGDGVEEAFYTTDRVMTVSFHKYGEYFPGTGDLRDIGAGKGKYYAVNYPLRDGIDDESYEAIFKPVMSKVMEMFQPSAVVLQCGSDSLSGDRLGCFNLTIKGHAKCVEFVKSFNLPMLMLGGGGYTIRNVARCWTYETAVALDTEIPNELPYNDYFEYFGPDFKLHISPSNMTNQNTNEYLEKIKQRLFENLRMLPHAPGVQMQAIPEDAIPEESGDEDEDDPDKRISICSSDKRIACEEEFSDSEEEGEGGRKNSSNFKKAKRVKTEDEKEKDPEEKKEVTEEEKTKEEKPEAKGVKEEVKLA
Chain of HDAC2 (Q92769 whole entry): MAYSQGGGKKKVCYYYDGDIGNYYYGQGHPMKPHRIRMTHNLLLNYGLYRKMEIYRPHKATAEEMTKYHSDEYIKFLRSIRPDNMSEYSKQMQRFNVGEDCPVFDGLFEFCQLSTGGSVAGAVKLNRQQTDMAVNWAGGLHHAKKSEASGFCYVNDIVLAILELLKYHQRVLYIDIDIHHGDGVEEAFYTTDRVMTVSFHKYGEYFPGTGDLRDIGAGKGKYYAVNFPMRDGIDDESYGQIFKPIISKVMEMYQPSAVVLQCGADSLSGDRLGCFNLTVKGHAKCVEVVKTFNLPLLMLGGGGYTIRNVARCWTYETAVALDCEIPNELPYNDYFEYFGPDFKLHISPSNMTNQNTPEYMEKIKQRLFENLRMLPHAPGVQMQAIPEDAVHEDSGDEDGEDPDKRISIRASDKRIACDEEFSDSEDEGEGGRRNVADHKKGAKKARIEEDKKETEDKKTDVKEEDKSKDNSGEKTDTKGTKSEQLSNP

On to `O=C(CCCCCCn1cc(-c2ccc(OC3O[C@H](CO)[C@@H](O)[C@H](O)C3O)cc2)nn1)NO` (stereo in doubt) [STR-I-195, N-hydroxy-7-(4-(4-(((2S,3R,4S,5S,6R)-3,4,5-trihydroxy-6-(hydroxymethyl)-tetrahydro-2H-pyran-2-yl)oxy)phenyl)-1H-1,2,3-triazol-1-yl)heptanamide], for which the IC50 – broadly, the midpoint of a concentration-inhibition curve – worked out at 14.6 nM at HDAC1, 29.1 nM against HDAC2, 2.51 nM against HDAC6 and 464 nM on HDAC8. Further, the “on-target effect (HDAC inhibition): acetylated tubulin and histone H4 levels” value (“on-target effect (HDAC inhibition)” for short) in [1] is “upregulation of acetylated tubulin and histone H4”. Besides, in the series on Hep-G2 cell line, the “apoptosis via caspase 3 activation (clv-caspase 3)” value (shortened to “apoptosis via caspase 3 activation”) is listed as “induced apoptosis”. In addition, the “apoptosis (clv-caspase 3)” value with Vero cell line is “did not induce apoptosis”.
Consider `O=C(CCCCCCC(=O)Nc1ccccc1)NO` [SAHA, reference compound], for which the “apoptosis via caspase 3 activation” value in the series on Hep-G2 cell line was “induced apoptosis”. Moreover, the “apoptosis (clv-caspase 3)” value in the series with Vero cell line is recorded as “induced apoptosis”.
As to `O=C(CCCCCCn1cc(-c2ccc(O[C@H]3O[C@H](CO)[C@@H](O)[C@H](O)[C@H]3O)cc2)nn1)NO` [STR-V-53], the IC50 was found to be 24.3 nM against HDAC1, 60.1 nM on HDAC2, 3.43 nM against HDAC6 and 843 nM against HDAC8. For the same molecule, the “on-target effect (HDAC inhibition)” value in [1] is “upregulation of acetylated tubulin and histone H4”. For the same molecule, the “apoptosis via caspase 3 activation” value in the series on Hep-G2 cell line is listed as “induced apoptosis”. Also, in the series on Vero cell line, the “apoptosis (clv-caspase 3)” value is listed as “did not induce apoptosis”. Also, in the series on Hep-G2 [2], the “effect on cell cycle” value was “cell cycle arrest”. Moreover, the “effect of GLUT2 blockage on cytotoxicity” value with Hep-G2 [3] is “attenuates the cytotoxicity”.
Take `O=C(CCCCCCn1cc(-c2ccc3cc(O[C@H]4O[C@H](CO)[C@@H](O)[C@H](O)[C@H]4O)ccc3c2)nn1)NO` [STR-V-114, N-hydroxy-7-(4-(6-(((2R,3R,4S,5S,6R)-3,4,5-trihydroxy-6-(hydroxymethyl)-tetrahydro-211-pyran-2-yl)oxy)naphthalen-2-yl)-1H-1,2,3-triazol-1-yl)heptanamide]: the IC50 against HDAC1 worked out at 20.3 nM; against HDAC2 it was 61.5 nM; against HDAC6 it was 4.5 nM; against HDAC8, 2130 nM. Besides, the “on-target effect (HDAC inhibition)” value in series [1] was “upregulation of acetylated tubulin and histone H4”.
As to “(2R,3R,4S,5R,6R)-2-(acetoxymethyl)-6-(4-(1-(7-(((tert-butyldiphenylsilyl)oxy)-amino)-7-oxoheptyl)-1H-1,2,3-triazol-4-yl)phenoxy)tetrahydro-2H-pyran-3,4,5-triyl triacetate [STR-V-167]”, the IC50 was 31.8 nM against HDAC1, 66.4 nM against HDAC2, 2.61 nM at HDAC6 and 311 nM on HDAC8.
As for “(2S,3R,4S,6R)-4-(dimethylamino)-2-(4-(1-(7-(hydroxyamino)-7-oxoheptyl)-1H-1,2,3-triazol-4-yl)phenoxy)-6-methyltetrahydro-2H-pyran-3-yl acetate [STR-V-165]”, the IC50 against HDAC1 stood at 10.3 nM; on HDAC2, 27.5 nM; against HDAC6 it was 5.22 nM; against HDAC8 it was 806 nM.

(Values after patent publication US12617813B2, “Glycosylated histone deacetylase inhibitors and methods of making and using the same” (Georgia Tech Research Corporation, priority 2020, dated 2026).)
